Source: patent US20090181989A1, “Purine Compunds as HSP90 Protein Inhibitors for the Treatment of Cancer” (VERNALIS ( R & D) LTD., priority 2005, published 2009)

Target: T1, human full-length HSP90 (Homo sapiens, UniProt P08238)
T1 construct: E. coli expressed human full-length HSP90 protein; made in house; host or cells: E. coli
Test: Fluorescence polarization assay (competitive displacement of fluorescein-labelled probe VER00051001-FAM from HSP90)
Format: binding
Conditions: activity range in the fluorescence polarization assay; E. coli expressed human full-length HSP90 200 nM, probe 80 nM
Excerpt: Fluorescence Polarization Assay
Fluorescence polarization {also known as fluorescence anisotropy} measures the rotation of a fluorescing species in solution, where the larger molecule the more polarized the fluorescence emission. When the fluorophore is excited with polarized light, the emitted light is also polarized. The molecular size is proportional to the polarization of the fluorescence emission.
The fluoroscein-labelled probe-VER00051001-FAM-
binds to HSP90 {full-length human, full-length yeast or N-terminal domain HSP90} and the anisotropy {rotation of the probe:protein complex} is measured.
Test compound is added to the assay plate, left to equilibrate and the anisotropy measured again. Any change in anisotropy is due to competitive binding of compound to HSP90, thereby releasing probe.
Chemicals are of the highest purity commercially available and all aqueous solutions are made up in AR water. • 1) Costar 96-well black assay plate #3915 • 2) Assay buffer of (a) 100 mM Tris pH7.4; (b) 20 mM KCl; (c) 6 mM MgCl2. Stored at room temperature. • 3) BSA (bovine serum albumen) 10 mg/ml (New England Biolabs # B9001S) • 4) 20 mM probe in 100% DMSO stock concentration. Stored in the dark at RT. Working concentration is 200 nM diluted in AR water and stored at 4° C. Final concentration in assay 80 nM. • 5) E. coli expressed human full-length HSP90 protein, purified >95% (see, e.g., Panaretou et al., 1998) and stored in 50 μL aliquots at −80° C.
• 1) Add 100 μl 1× buffer to wells 11A and 12A(═FPBLNK) • 2) Prepare assay mix—all reagents are kept on ice with a lid on the bucket as the probe is light-sensitive.
• 3) Aliquot 100 μl assay mix to all other wells • 4) Seal plate and leave in dark at room temp for 20 minutes to equilibrate Compound Dilution Plate—1×3 dilution series • 1) In a clear 96-well v-bottom plate—{# VWR 007/008/257} add 10 μl 100% DMSO to wells B1 to H11 • 2) To wells A1 to A11 add 17.5 μl 100% DMSO • 3) Add 2.5 μl cpd to A1. This gives 2.5 mM {50×} stock cpd—assuming cpds 20 mM. • 4) Repeat for wells A2 to A10. Control in columns 11 and 12. • 5) Transfer 5 μl from row A to row B- not column 12. Mix well. • 6) Transfer 5 μl from row B to row C. […] In column 11 {provides standard curve} only add compound B11-H11. Add 2 μl of 100 mM standard cpd to wells B12-H12 {is positive control} • 13) The Z′ factor is calculated from zero controls and positive wells. It typically gives a value of 0.7-0.9.
The compounds tested in the above assay were assigned to one of two activity ranges, namely A=<10 μM; B=>10 μM, and those assignments are reported above.

T1 sequence (P08238 whole entry): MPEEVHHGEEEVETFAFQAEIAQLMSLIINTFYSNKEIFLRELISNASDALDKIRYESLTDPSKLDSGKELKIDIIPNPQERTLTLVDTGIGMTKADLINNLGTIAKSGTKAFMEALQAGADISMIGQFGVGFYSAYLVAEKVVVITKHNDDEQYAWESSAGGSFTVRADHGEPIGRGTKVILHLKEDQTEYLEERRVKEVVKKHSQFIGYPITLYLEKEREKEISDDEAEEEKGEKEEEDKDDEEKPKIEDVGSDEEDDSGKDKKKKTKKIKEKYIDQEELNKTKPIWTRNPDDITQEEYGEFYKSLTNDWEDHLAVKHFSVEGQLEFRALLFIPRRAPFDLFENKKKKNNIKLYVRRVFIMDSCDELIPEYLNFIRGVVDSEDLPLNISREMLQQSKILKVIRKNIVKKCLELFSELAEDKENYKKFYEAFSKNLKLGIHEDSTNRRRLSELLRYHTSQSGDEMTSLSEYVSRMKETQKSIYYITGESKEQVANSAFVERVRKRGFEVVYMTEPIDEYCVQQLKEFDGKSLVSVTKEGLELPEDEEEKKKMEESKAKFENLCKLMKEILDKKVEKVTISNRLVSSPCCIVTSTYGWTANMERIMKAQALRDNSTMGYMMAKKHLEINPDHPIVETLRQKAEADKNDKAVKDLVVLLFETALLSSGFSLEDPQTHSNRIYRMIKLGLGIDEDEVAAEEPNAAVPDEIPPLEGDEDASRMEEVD

Row | SMILES | IC50
1 | CSc1nc(-c2ccc(C)cc2C)c2nc(C#N)[nH]c2n1 [Example 33, 6-(2,4-Dimethyl-phenyl)-2-methylsulfanyl-9H-purine-8-carbonitrile] | > 10 µM
2 | Cc1cc(Cl)ccc1-c1nc(Cl)nc2[nH]cnc12 [Example 9] | < 10 µM
3 | CN(C)CCSc1nc(-c2ccc(Cl)cc2Cl)c2nc[nH]c2n1 [Example 22] | < 10 µM
4 | CSc1nc(-c2ccc(F)cc2C)c2nc[nH]c2n1 [Example 15, 6-(2-methyl-4-fluoro-phenyl)-2-methylsulfanyl-9H-purine] | < 10 µM
5 | Cc1cc(Cl)c(-c2nc(Cl)nc3[nH]cnc23)cc1O [Example 27, 4-Chloro-5-(2-chloro-9H-puriny-6-yl)-2-methyl-phenol] | < 10 µM
6 | CSc1nc(-c2ccc3ccccc3c2)c2nc[nH]c2n1 [Example 17] | > 10 µM
7 | CN(C)CCCOc1cc(-c2nc(Cl)nc3[nH]cnc23)c(Cl)cc1Cl [Example 34, {3-[2,4-Dichloro-5-(2-chloro-9H-purin-6-yl)-phenoxy]-propyl}-dimethyl-amine] | < 10 µM
8 | CCN(CC)CCOc1cc(-c2nc(Cl)nc3[nH]cnc23)c(Cl)cc1C [Example 28, {2-[4-Chloro-5-(2-chloro-9H-purin-6-yl)-2-methyl-phenoxy]-ethyl}-diethyl-amine] | < 10 µM
9 | CCOC(=O)CSc1nc(-c2ccc(Cl)cc2Cl)c2nc[nH]c2n1 [Example 20] | < 10 µM
10 | Cc1ccc(-c2nc(Cl)nc3[nH]cnc23)c(C)c1 [Example 3] | < 10 µM
11 | C[S+]([O-])c1nc(-c2ccc(Cl)cc2Cl)c2nc[nH]c2n1 (stereo not drawn) [Example 26, 6-(2,4-Dichloro-phenyl)-2-methanesulfinyl-7H-purine] | > 10 µM
12 | N#Cc1ccc(-c2nc(Cl)nc3[nH]cnc23)cc1 [Example 6] | < 10 µM
13 | CSc1nc(-c2ccc(C)cc2C)c2nc(Cl)[nH]c2n1 [Example 31, 8-Chloro-6-(2,4-dimethyl-phenyl)-2-methylsulfanyl-9H-purine] | > 10 µM
14 | Clc1ccc(-c2nc(Cl)nc3[nH]cnc23)c(Cl)c1 [Example 1, 2-Chloro-6-(2,4-dichloro-phenyl)-9H-purine] | < 10 µM
15 | CCN(CC)CCOc1cc(-c2nc(SC)nc3[nH]cnc23)c(Cl)cc1C [Example 29, {2-[4-Chloro-2-methyl-5-(2-methylsulfanyl-9H-purin-6-yl)-phenoxy]-ethyl}-diethyl-amine] | < 10 µM
16 | Cc1ccc(-c2nc(Cl)nc3[nH]cnc23)c(Cl)c1 [Example 8] | < 10 µM
17 | CCN(CC)CCOc1cc(-c2nc(Cl)nc3[nH]cnc23)c(Cl)cc1Cl [Example 35, {2-[2,4-Dichloro-5-(2-chloro-9H-purin-6-yl)-phenoxy]-ethyl}-diethyl-amine] | < 10 µM
18 | CCNC(=O)CSc1nc(-c2ccc(Cl)cc2Cl)c2nc[nH]c2n1 [Example 16] | < 10 µM
19 | CSc1nc(-c2ccc(Cl)cc2Cl)c2nc[nH]c2n1 [Example 14, 6-(2,4-dichloro-phenyl)-2-methylsulfanyl-9H-purine] | < 10 µM
20 | Cc1cc(F)ccc1-c1nc(Cl)nc2[nH]cnc12 [Example 10] | < 10 µM

Now from value to molecule:

Row | IC50 | SMILES
21 | < 10 µM | Clc1nc(-c2ccccc2)c2nc[nH]c2n1 [Example 11]
22 | < 10 µM | Clc1ccc(-c2nc(Sc3nc[nH]n3)nc3[nH]cnc23)c(Cl)c1 [Example 18]
23 | > 10 µM | Cc1ccc(-c2nc(Cl)nc3[nH]cnc23)c2ccccc12 [Example 4]
24 | > 10 µM | CSc1nc(-c2ccc(C)cc2C)c2nc(C)[nH]c2n1 [Example 32, 6-(2,4-Dimethyl-phenyl)-8-methyl-2-methylsulfanyl-9H-purine]
25 | < 10 µM | CCN(CC)Cc1ccc(COc2cc(-c3nc(Cl)nc4[nH]cnc34)c(Cl)cc2Cl)cc1 [Example 24, {4-[2,4-Dichloro-5-(2-chloro-9H-purin-6-yl)-phenoxymethyl]-benzyl}-diethyl-amine]
26 | > 10 µM | Clc1nc(-c2ccc3c(c2)CCO3)c2nc[nH]c2n1 [Example 5]
27 | < 10 µM | CSc1nc(-c2ccc(Cl)cc2C)c2nc[nH]c2n1 [Example 19]
28 | < 10 µM | COc1nc(-c2ccc(Cl)cc2Cl)c2nc[nH]c2n1 [Example 23, 6-(2,4-Dichloro-phenyl)-2-methoxy-9H-purine]
29 | < 10 µM | CCNC(=O)CSc1nc(-c2cc(OCCN(CC)CC)c(C)cc2Cl)c2nc[nH]c2n1 [Example 30, 2-{6-[2-Chloro-5-(2-diethlamino-ethoxy)-4-methyl-phenyl]-9H-purin-2-ylsulfanyl}-N-ethyl Acetamide]
30 | > 10 µM | CCNC(=O)C(C)(C)Sc1nc(-c2ccc(Cl)cc2Cl)c2nc[nH]c2n1 [Example 21]
31 | < 10 µM | CSc1nc(-c2ccc(C#N)cc2)c2nc[nH]c2n1 [Example 13, 6-(4-cyano-phenyl)-2-methylsulfanyl-9H-purine]
32 | < 10 µM | CSc1nc(-c2cc(OCc3ccccc3)c(Cl)cc2Cl)c2nc[nH]c2n1 [Example 12, 6-(5-benzyloxy-2,4-dichloro-phenyl)-2-methylsulfanyl-9H-purine]
33 | < 10 µM | Clc1nc(-c2cc(OCc3ccccc3)c(Cl)cc2Cl)c2nc[nH]c2n1 [Example 2, 6-(5-Benzyloxy-2,4-dichloro-phenyl)-2-chloro-9H-purine]
34 | < 10 µM | O=C1CCCN1CCOc1cc(-c2nc(Cl)nc3[nH]cnc23)c(Cl)cc1Cl [Example 37, 1-{2-[2,4-Dichloro-5-(2-chloro-9H-purin-6-yl)-phenoxy]-ethyl}-pyrrolidin-2-one]
35 | < 10 µM | Clc1nc(-c2cc(OCCN3CCCC3)c(Cl)cc2Cl)c2nc[nH]c2n1 [Example 36, 2-Chloro-6-[2,4-dichloro-5-(2-pyrrolidin-1-yl-ethoxy)-phenyl]-9H-purine]
36 | > 10 µM | CS(=O)(=O)c1nc(-c2ccc(Cl)cc2Cl)c2nc[nH]c2n1 [Example 25, 6-(2,4-Dichloro-phenyl)-2-methanesulfonyl-7H-purine]
